Legend:
[1] = molecular target: human liver microsomal cytochrome P450 2E1 (CYP2E1) (Homo sapiens, UniProt P05181); experiment: Human liver microsomal CYP2E1, chlorzoxazone 6-hydroxylation;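 also: chlorzoxazone added as substrate, 6-hydroxychlorzoxazone formation quantified by LC/MS/MS after 30 min at 37 °C with NADP+ regenerating system, compared against solvent control without test sample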
Method: (§1) Microsomes prepared from human liver were used to extract cytochrome P450 2E1 (CYP2E1) and CYP2E1 inhibitors were screened from 39 Chinese medicine guiding drugs and 10 excipients. Chlorzoxazone hydroxylation is a reaction catalyzed primarily by CYP2E1 in liver. The extracted human liver microsomal cytochrome P450 2E1 (CYP2E1) was mixed with its substrate, Chlorzoxazone, and test sample was then added Inhibition of CYP2E1 activity was calculated by measuring CYP2E1 standard metabolite, 6-OH-CZX (6-Hydroxy-Chlorzoxazone), and compared with control 6-OH-CZX.
(§2) After incubation, 16 mM Chlorzoxazone and test samples were added to experimental groups; methanol:sterilized water at 1:1 ratio was added to control groups and DDTC was added to positive control groups,
(§3) Finally, cofactor 1 mM NADP^+, 10 mM G6P and 2 IU G6PD were added and reaction mixtures were transferred to pre-incubation 37° C. water bath for 1 mM and activity was measured after 30 min of reaction
(§4) At the end of reaction, 500 μl acetonitrile was added to stop the reaction followed by 5 g/mL 4-hydroxy-tobutamide after 1 mM incubation. The mixture was then centrifuged and 20 L of supernatant was diluted ten times with methanol/sterilized water and 5 L was used for LC/MS/MS analysis. […] The inhibition of CYP2E1 was then calculated by the following equation:

amidase = experiment: Mouse liver microsomal amidase, isoniazid to isonicotinic acid; format: biochemical
From the text: Mouse liver microsomes were used as the source of amidase, and isoniazid was used as the amidase metabolism drugs. quantitative isoniazid was catalyzed into metabolites isonicotinic acid (INA) by amidase, and was used as the index for measurement of the amidase activity for establishment of the platform for screening in vitro amidase activity inhibitors. The HPLC system includes a Shimadzu the LC-LOAD pump, 1 Shimadzu system control and a Shimadzu autosampler (Shimadzu Scientific Instrument, Japan). A C18 column (particle size 5 μm, inner diameter of 50×4.6 mm, 25 cm) containing 70% methanol and 30% ammonium formate (50 mM, pH=2.5) of the mobile phase for HPLC separation, and the experimental steps are outlined as follows:
(2) An aliquot of 150 μL mouse liver microsomal solution was added to 100 μL isoniazid solution in 35 μL 67 mM potassium phosphate buffer solution ([…], pH=7) with a final concentration at 3 mM, and then mixed thoroughly with 15 μL amidase inhibitor (deionized water was added in the control group). (3) Incubation at 37° C. water bath for 30 minutes. (4) An aliquot of 300 μL acetonitrile (ACN) was added and mixed thoroughly, and incubated for 6 minutes. (5) An aliquot of 30 μL perchloric acid was then mixed and incubated for 6 minutes. (6) The mixture was centrifuged at 13000 g for 6 minutes. (7) After centrifugation, 100 μL of the supernatant was injected into HPLC. (8) Methanol ammonium formate (50 mM, pH=2.5)=70:30 (V/V) was selected as the mobile phase, and the flow rate was controlled at […] and detected at 270 nm UV. […] The amidase inhibition % was then calculated using the following formula: […]

CYP2E1 = CYP2E1 (Homo sapiens, UniProt P05181); experiment: Human liver microsomal CYP2E1, chlorzoxazone 6-hydroxylation; settings: human;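 also: chlorzoxazone added as substrate, 6-hydroxychlorzoxazone formation quantified by LC/MS/MS after 30 min at 37 °C with NADP+ regenerating system, compared against solvent control without test sample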
Method: as §1, §2, §3, §4

[2] = Table 6, minimum tested concentration (mg/L) × volume of human liver and intestine (3 L)
[3] = human liver microsomes, pH 7.4, probe Chlorzoxazone

Sequence of human liver microsomal cytochrome P450 2E1 (CYP2E1) (P05181 whole entry): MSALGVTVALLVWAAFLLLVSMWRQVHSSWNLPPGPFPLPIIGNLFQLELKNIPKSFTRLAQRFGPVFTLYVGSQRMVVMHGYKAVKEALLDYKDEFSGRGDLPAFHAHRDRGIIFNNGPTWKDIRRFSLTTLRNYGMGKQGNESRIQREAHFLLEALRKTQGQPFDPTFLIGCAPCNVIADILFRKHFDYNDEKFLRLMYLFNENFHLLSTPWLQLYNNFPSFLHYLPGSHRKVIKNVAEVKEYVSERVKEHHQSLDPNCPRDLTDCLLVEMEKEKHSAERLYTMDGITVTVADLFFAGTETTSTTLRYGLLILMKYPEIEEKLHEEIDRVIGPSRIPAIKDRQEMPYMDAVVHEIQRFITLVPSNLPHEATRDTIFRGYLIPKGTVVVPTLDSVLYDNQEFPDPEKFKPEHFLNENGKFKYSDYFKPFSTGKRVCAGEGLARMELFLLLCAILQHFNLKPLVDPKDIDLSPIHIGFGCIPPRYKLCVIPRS
Sequence of CYP2E1 (P05181 whole entry): as above

Row | Compound | Minimum Effective Dose [1, 2] [mg] | Amidase inhibition (amidase; 1 uM) [%] | Amidase inhibition (amidase; 10 uM) [%] | Amidase inhibition (amidase; 100 uM) [%] | other results
1 | COc1ccc(-c2cc(=O)c3c(O)cc(O[C@@H]4O[C@H](CO[C@@H]5O[C@@H](C)[C@H](O)[C@@H](O)[C@H]5O)[C@@H](O)[C@H](O)[C@H]4O)cc3o2)cc1O [Diosmin] | 33 | 0.3 ± 8.1 | −0.7 ± 7.7 | 1.6 ± 5.1 | –
2 | O=c1c(-c2ccc(O)cc2)coc2cc(O)ccc12 [Daidzein] | 14 | −12.1 ± 6.3 | 1.0 ± 7.4 | 16.2 ± 12.6 | –
3 | O=C(O)CC(O)(CC(=O)O)C(=O)O [Citric acid] | – | – | – | – | inhibition at 30 min, 16.5 µM (CYP2E1; [3]): 9.9 ± 3.1%; inhibition at 30 min, 33 µM (CYP2E1; [3]): 15.5%; inhibition at 30 min, 66 µM (CYP2E1; [3]): 20.5 ± 1.8%; Minimum Effective Dose ([1]; Table 7): 10 mg
4 | O=c1c(O)c(-c2ccc(O)cc2O)oc2cc(O)cc(O)c12 [Morin] | 16 | −16.6 ± 4.8 | 9.1 ± 1.7 | 59.8 ± 5.1 | –
5 | O=c1cc(-c2ccc(O)cc2)oc2cc(O)cc(O)c12 [Apigenin] | 15 | −10.2 ± 20.3 | 13.2 ± 3.4 | – | –
6 | O=c1cc(-c2ccc(O)c(O)c2)oc2cc(O[C@@H]3O[C@H](CO)[C@@H](O)[C@H](O)[C@H]3O)cc(O)c12 [Luteolin-7-Glucoside] | 24 | 3.2 ± 0.8 | 8.7 ± 1.9 | 12.9 ± 3.1 | Inhibition of CYP 2E1 ([1]; 16.5 μM): 42.96 ± 5.10%; Inhibition of CYP 2E1 ([1]; 33 μM): 55.87 ± 0.67%; Inhibition of CYP 2E1 ([1]; 66 μM): 60.26 ± 1.11%
7 | COc1ccc(-c2oc3cc(O)cc(O)c3c(=O)c2O)cc1O [Tamarixetin] | 17 | 3.5 ± 10.5 | 27.9 ± 6.3 | 28.9 ± 4.2 | –
8 | COc1cc(-c2oc3cc(O)cc(O)c3c(=O)c2O)ccc1O [Isorhamnetin] | 14 | 13.8 ± 1.0 | 20.0 ± 4.6 | 31.3 ± 1.3 | –
9 | CC1CCC(C(C)C)C(O)C1 (stereo not shown) [Menthol] | – | – | – | – | inhibition at 30 min, 0.08 % (w/v) (CYP2E1; [3]): 20.8 ± 2.1%; inhibition at 30 min, […] (w/v) (CYP2E1; [3]): 10.5 ± 0.4%; inhibition at 30 min, 0.167 % (w/v) (CYP2E1; microsomes, pH 7.4): 30.8 ± 0.3%; Minimum Effective Dose ([1]; Table 7): 8 mg
10 | CCCCCCCCCCCCOS(=O)(=O)[O-].[Na+] [Sodium lauryl sulfate] | – | – | – | – | inhibition at 30 min, 16.5 µM (CYP2E1; [3]): 4.6 ± 1.1%; inhibition at 30 min, 33 µM (CYP2E1; [3]): 6.4 ± 0.9%; inhibition at 30 min, 66 µM (CYP2E1; [3]): 4.9 ± 1.6%; Minimum Effective Dose ([1]; Table 7): 14 mg; Amidase inhibition (amidase; 0.0005%): 9.6 ± 5.0%; Amidase inhibition (amidase; 0.005%): 19.3 ± 2.7%; Amidase inhibition (amidase; 0.05%): 66.1 ± 2.1%
11 | CCCOC(=O)c1ccc(O)cc1 [Propylparaben] | – | – | – | – | inhibition at 30 min, 16.5 µM (CYP2E1; [3]): -4.1 ± 1.2%; inhibition at 30 min, 33 µM (CYP2E1; [3]): -17.2 ± 2.4%; inhibition at 30 min, 66 µM (CYP2E1; [3]): -27.3 ± 3.7%; Minimum Effective Dose ([1]; Table 7): 9 mg
12 | O=c1cc(-c2ccc(O)c(O)c2)oc2cc(O)cc(O)c12 [Luteolin] | 16 | 6.1 ± 9.1 | 23.0 ± 6.0 | 47.5 ± 6.2 | –
13 | C/C=C/C=C/C(=O)O [Sorbic acid] | – | – | – | – | inhibition at 30 min, 16.5 µM (CYP2E1; [3]): 8.4 ± 1.6%; inhibition at 30 min, 33 µM (CYP2E1; [3]): 10.9 ± 2.1%; inhibition at 30 min, 66 µM (CYP2E1; [3]): 14.8 ± 0.1%; Minimum Effective Dose ([1]; Table 7): 6 mg
14 | O=c1c(O)c(-c2ccc(O)c(O)c2)oc2cc(O)cc(O)c12 [Quercetin] | 16 | 48.1 ± 15.0 | 62.3 ± 4.4 | 75.5 ± 2.2 | –
15 | O=c1c(-c2ccc(O)cc2)coc2cc(O)cc(O)c12 [Genistein] | 15 | −2.1 ± 46.2 | 1.8 ± 7.6 | 5.8 ± 6.8 | –
16 | Oc1cc(O)c2c(c1)O[C@H](c1cc(O)c(O)c(O)c1)[C@H](O)C2 [(−)-Epigallocatechin] | 17 | −1.2 ± 2.1 | −7.3 ± 7.6 | 2.2 ± 4.1 | Inhibition of CYP 2E1 ([1]; 16.5 μM): 38.95 ± 1.92%; Inhibition of CYP 2E1 ([1]; 33 μM): 36.40 ± 2.18%; Inhibition of CYP 2E1 ([1]; 66 μM): 57.08 ± 1.85%
17 | O=c1c(O)c(-c2cc(O)c(O)c(O)c2)oc2cc(O)cc(O)c12 [Myricetin] | 17 | 8.0 ± 4.9 | 37.8 ± 8.4 | 56.4 ± 1.5 | –
18 | COc1ccc([C@@H]2CC(=O)c3c(O)cc(O[C@@H]4O[C@H](CO[C@@H]5O[C@@H](C)[C@H](O)[C@@H](O)[C@H]5O)[C@@H](O)[C@H](O)[C@H]4O)cc3O2)cc1O [Hesperidin] | 33 | – | – | – | Inhibition of CYP 2E1 ([1]; 16.5 μM): 45.32 ± 1.57%; Inhibition of CYP 2E1 ([1]; 33 μM): 50.91 ± 2.81%; Inhibition of CYP 2E1 ([1]; 66 μM): 58.57 ± 3.78%
19 | O.OC[C@H]1O[C@@H](O[C@H]2[C@H](O)[C@@H](O)C(O)O[C@@H]2CO)[C@H](O)[C@@H](O)[C@H]1O (stereo partly shown) [Lactose monohydrate] | – | – | – | – | inhibition at 30 min, 16.5 µM (CYP2E1; [3]): 7.8 ± 2.2%; inhibition at 30 min, 33 µM (CYP2E1; [3]): 3.9 ± 2.3%; inhibition at 30 min, 66 µM (CYP2E1; [3]): 8.7 ± 3.8%; Minimum Effective Dose ([1]; Table 7): 18 mg
20 | O=c1cc(-c2ccccc2)oc2cc(O)c(O)c(O)c12 [Baicalein] | 15 | 2.8 ± 15.1 | 5.7 ± 2.6 | 15.6 ± 1.0 | –
21 | O=C(O)[C@H]1O[C@@H](Oc2cc3oc(-c4ccccc4)cc(=O)c3c(O)c2O)[C@H](O)[C@@H](O)[C@@H]1O [Baicalin] | 24 | 2.1 ± 7.5 | 15.2 ± 6.3 | 34.8 ± 10.2 | –
22 | O=c1cc(-c2ccc(O)cc2)oc2cc(O)c([C@@H]3O[C@H](CO)[C@@H](O)[C@H](O)[C@H]3O)c(O)c12 [Isovitexin] | 24 | 13.9 ± 2.3 | 5.8 ± 2.7 | 1.1 ± 7.1 | –
23 | C=CC(=C)CCC=C(C)C [β-Myrcene] | 8 | 1.7 ± 1.3 | 6.6 ± 4.1 | 5.8 ± 2.7 | –
24 | O=C/C=C/c1ccccc1 [Trans-Cinnamaldehyde] | 7 | – | – | – | –
25 | Magnesium stearate | – | – | – | – | Inhibition of CYP 2E1 ([1]; 16.5 μM): 2.0 ± 1.0%; Inhibition of CYP 2E1 ([1]; 33 μM): 3.0 ± 0.7%; Inhibition of CYP 2E1 ([1]; 66 μM): 5.0 ± 1.6%
26 | COC(=O)c1ccc(O)cc1 [Methylparaben] | – | – | – | – | inhibition at 30 min, 16.5 µM (CYP2E1; [3]): 4.6 ± 3.2%; inhibition at 30 min, 33 µM (CYP2E1; [3]): -14 ± 2.2%; inhibition at 30 min, 66 µM (CYP2E1; [3]): -21.5 ± 2%; Minimum Effective Dose ([1]; Table 7): 8 mg
27 | C=C(C)C1CC=C(C)CC1 (single isomer, unassigned; (+)) [(+)-Limonene] | – | 5.1 ± 0.4 | 3.2 ± 8.6 | 6.2 ± 3.8 | Inhibition of CYP 2E1 ([1]; 16.5 μM): 13.77 ± 1.96%; Inhibition of CYP 2E1 ([1]; 33 μM): 38.05 ± 1.95%; Inhibition of CYP 2E1 ([1]; 66 μM): 63.64 ± 2.74%
28 | (−)-Epicatechin-3-gallate | 24 | – | – | – | Inhibition of CYP 2E1 ([1]; 16.5 μM): 30.31 ± 1.27%; Inhibition of CYP 2E1 ([1]; 33 μM): 34.84 ± 1.72%; Inhibition of CYP 2E1 ([1]; 66 μM): 42.92 ± 0.65%
